Reference: article PMC8318231, “Rate-of-Kill (RoK) assays to triage large compound sets for Chagas disease drug discovery: Application to GSK Chagas Box” (PLoS Neglected Tropical Diseases, 2021)

System: T. cruzi intracellular amastigotes in H9c2 cells
Assay: Rate-of-Kill (RoK) high-content imaging assay, amastigotes per cell (AM/CELL) and curve descriptors
Format: cell-based, Trypanosoma cruzi
Set-up: key to ME_24h / ME_48h / ME_72h: % reduction in parasite burden (cidal response); t50pct_MCC50 / t50pct_Cmax: unit not given here
Conditions: for ME_24h: 24h; for ME_48h: 48h; for ME_72h: 72h; for AM/CELL NORM: sheet figure 4 A; for tlag_Cmax / t50pct_Cmax / t50%_Cmax: at Cmax; for ME_24h (%): maximum effect at 24 h; for ME_24h (%) / ME_48h (%) / ME_72h (%): RoK assay; for ME_48h (%): maximum effect at 48 h; for ME_72h (%): maximum effect at 72 h; for ME 24h (maximum effect at 24 hours, intracellular amastigotes): maximum percentage of parasite burden reduction reached by any concentration
How it was run: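 Readouts at each time point are amastigotes per cell and host nuclei count (cytotoxicity), from DRAQ5 high-content imaging. Infection: trypomastigotes on H9c2 at MOI 8 for 18 h. Dosing was 5 μM single point or 11 points, 1/3 steps from 50 μM. Effect scaled between 4 h infected and uninfected controls.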

| SMILES | ME_24h (figure 5) | ME_48h (figure 5) | ME_72h (figure 5) | MCC50 (RoK curve descriptor) [µM] | MCCE (RoK curve descriptor) [µM] | AM/CELL NORM (Time 4) | AM/CELL NORM (Time 24) | AM/CELL NORM (Time 48) | AM/CELL NORM (Time 72) | tlag_Cmax [h] | t50pct_Cmax (figure 5) | tlag_Cmax (figure 5) | t50%_MCC50 (at MCC50) [h] | t50pct_MCC50 (at MCC50, figure 5) | tlag_MCC50 (at MCC50, figure 5) | MCCE (figure 5) | ME_24h (%) | ME_48h (%) | ME_72h (%) | ME 24h (maximum effect at 24 hours, intracellular amastigotes) [%] | further results |
| --- | --- | --- | --- | --- | --- | --- | --- | --- | --- | --- | --- | --- | --- | --- | --- | --- | --- | --- | --- | --- | --- |
| CC(=O)Nc1nc(-c2cc(C)ccc2C)c(C)s1 [TCMDC-143207] | 9.377 | 15.7339 | 56.2605 | 5.6 | 0.2 | -2.089 | 9.377 | 6.875 | 36.4934 | 4.0 | 72 | 4 | 72.0 | 72 | 4 | 0.2058 | 9.4 | 15.7 | 56.3 | 9.377 | tlag_MCC50 (at MCC50): 4.0 h; MCC50 (figure 5, in µM): 5.556 |
| CC1CN(S(=O)(=O)c2ccc(NC(=O)c3cc(C4CC4)nc4c3cnn4C(C)C)cc2)CC(C)O1 (stereo not shown) [TCMDC-143200] | 2.192 | 1.8894 | 56.9286 | 1.9 | 1.9 | -14.9286 | 2.192 | -23.2452 | 15.376 | 4.0 | 72 | 4 | 72.0 | 72 | 24 | 1.852 | 2.2 | 1.9 | 56.9 | 2.192 | tlag_MCC50 (at MCC50): 24.0 h; MCC50 (figure 5, in µM): 1.852 |
| Cc1c(C(=O)NCCCCn2ccnc2)oc2c(C)cccc12 [TCMDC-143304] | -97.6451 | -43.6144 | 81.5916 | 1.9 | 0.6 | -4.678 | -97.6451 | -43.6144 | 60.7007 | 24.0 | 72 | 24 | 72.0 | 72 | 48 | 0.6173 | -97.7 | -43.6 | 81.6 | -97.6451 | t50%_Cmax: 72.0 h; tlag_MCC50 (at MCC50): 48.0 h; MCC50 (figure 5, in µM): 1.852 |
| O=C(O)C(F)(F)F.O=c1ccc2ccc(F)c3c2n1C[C@H]3CN1CCC(NCc2cc3ccccc3o2)CC1 [TCMDC-143301] | 26.9481 | 43.1407 | 49.4796 |  | 0.2 | 0.9981 | 26.9481 | 43.1407 | 49.4796 | 4.0 | 72 | 4 |  | 72 | 72 | 0.2058 | 27.0 | 43.1 | 49.5 | 26.9481 | MCC50 (figure 5): 50 µM |
| CCN(CC)S(=O)(=O)c1ccc(C(=O)Nc2cc(C)nn2-c2nc(C)c(C)c(=O)[nH]2)cc1 [TCMDC-143273] | -21.3076 | 17.6407 | 21.9061 | 1.9 | 0.6 | -1.286 | -40.8598 | 1.208 | 53.2799 | 24.0 | 72 | 24 | 72.0 | 72 | 38 | 0.6173 | -21.3 | 17.6 | 21.9 | 4.663 | t50%_Cmax: 72.0 h; tlag_MCC50 (at MCC50): 4.0 h; MCC50 (figure 5, in µM): 25.9259 |
